Assay results reported in patent publication US10941115B2, “Kinase inhibitors” (Oxular Acquisitions Limited, priority 2014, dated 2021).
Where a name gives a salt, the structure may show the parent alone. Read-outs that look alike come from different tables or passages of the source. One block for each molecule: values may come before it.

Legend:
LPS-stimulated rats = test: Endotoxin-induced uveitis in rats (assay vi); format: in vivo, Lewis rats; conditions: rats treated with intravitreal LPS, result in words
Description: Male, Lewis rats (6-8 weeks old, Charles River UK Limited) are housed in cages of 3 at 19-21° C. with a 12 h light/dark cycle (07:00/19:00) and fed a standard diet of rodent chow and water ad libitum. Non-fasted rats are weighed, individually identified on the tail with a permanent marker, and receive a single intravitreal administration into the right vitreous humor (5 μL dose volume) of 100 ng/animal of LPS (Escherichia coli 0111:B4 prepared in PBS, Sigma Aldrich, UK) using a 32-gauge needle. Untreated rats are injected with PBS. Test compound or vehicle (4% polyoxyl 40 stearate, 4% mannitol in PBS (pH 7.4)) are administered by the topical route onto the right eye (10 μL) of animals 1 hour prior to LPS, at the time of LPS administration, and 1, 2 and 4 hours post LPS administration. Before administration, the solution to be administered is sonicated to ensure a clear solution. 6 hours after LPS dosing, animals are euthanized by overdose with pentobarbitone (via cardiac puncture). Immediately after euthanasia, 10 μL of aqueous humor is collected from the right eye of the rats by puncture of the anterior chamber using a 32 gauge needle under a surgical microscope. The aqueous humor is diluted in 20 μL of PBS and total cell counts are measured immediately using a Countess automated cell counter (Invitrogen). […]

[1] = Stability of pharmaceutical formulations (1 mg/mL solutions); format: physicochemical; conditions: for Purity (%) at week n = 1: week 1; for Purity (%) at week n = 4: week 4
Description: The samples were sonicated to achieve clear solutions having the following properties: Osmolality (mOsm/kg): 310 (Na), 314 (HCl); pH: 7.00 (Na), 7.05 (HCl). 0.5 mL of the stock solutions were diluted to 1 mL with 20% DMSO in water & injected for purity analysis by HPLC. The remaining stock solutions were then split into aliquots of 0.5 mL in HPLC vials, and stored at various conditions in duplicate. Samples were stored at 5 and 25° C., before being analysed by HPLC at 1, 2 and 4 weeks. Separate samples were stored at 40° C. and analysed at 4 weeks.

[2] = 0.1 and 1.0 mg/mL, four daily ocular instillations, rabbits
[3] = tested on: Salmonella typhimurium strains TA1535, TA1537, TA98 and TA100; test: Bacterial reverse mutation screen (plate incorporation, ±S-9); conditions: for mutagenic effects (revertant numbers): TA1535, TA1537, TA98, TA100, presence and absence of S-9 mix; for toxicity to the bacteria (mean colony count): at the highest doses (500-5000 μg/plate), some strains
[4] = tested on: Escherichia coli WP2 uvrA; test: as above; conditions: for mutagenic effects (revertant numbers): presence and absence of S-9 mix
[5] = Hydrolytic stability study in DMSO/water (3:1) at 60 °C; format: physicochemical; conditions: DMSO/water 3:1, 1 mg/mL, result in words
Description: Flow rate 2.5 mL/min. Column Oven Temperature 40° C. […] The peak area for the test compound was recorded following manual integration of the corresponding UV trace. • The test solution was heated to 60° C., with stirring, and 50 μL aliquots removed for HPLC analysis at 5 and 24 h timepoints.

non-mutant kinases = format: binding; conditions: for KinomeScan Selectivity Score S(10): fraction of non-mutant kinases with % Ctrl <10; for KinomeScan Selectivity Score S(1): fraction of non-mutant kinases with % Ctrl <1
Description: These assays may be conducted by DiscoverX (formerly Ambit; San Diego, Calif.).

SMILES: COc1cc(Nc2cc(Oc3ccc(NC(=O)Nc4cc(C(C)(C)C)cc(NS(C)(=O)=O)c4OC)c4ccccc34)ccn2)ccc1C(=O)O [Example 1, 4-((4-((4-(3-(5-(tert-Butyl)-2-methoxy-3-(methylsulfonamido)phenyl)ureido)naphthalen-1-yl)oxy)pyridin-2-yl)amino)-2-methoxybenzoic acid]
cellular infiltration (cell counts) in the eyes (LPS-stimulated rats): significantly and dose-dependently reduced cellular infiltration
cytokine IL-1β levels in anterior and posterior segments of the eyes (LPS-stimulated rats): significantly and dose-dependently reduced
stability in solution ([1]; 1 mg/mL Na and HCl salts in pH 7.2 phosphate buffer, 4.5% mannitol, 3% polyoxyl 40 stearate): stable in solution at 5 °C
local tolerability of the formulations ([2]; Phase 1: one treatment day): acceptable after a single dosing day
ocular reactions compared with vehicle controls ([2]; Phase 1: one treatment day): no differences in the frequency, severity and incidence between the Example 1-treated animals and the vehicle controls
local tolerability of the formulations ([2]; Phase 2: three consecutive treatment days): acceptable without any aggravation for the 3 treatment days
mutagenic effects (revertant numbers) [3]: absence of any mutagenic effects
toxicity to the bacteria (mean colony count) [3]: reduction in the mean colony count
mutagenic effects (revertant numbers) [4]: absence of any mutagenic effects

decomposition under the conditions of the hydrolytic stability study [5]: underwent substantial decomposition
SMILES: C#Cc1cc(Nc2nccc(Oc3ccc(NC(=O)Nc4cc(C(C)C)nn4-c4ccc(C)cc4)c4ccccc34)n2)cc(C(=O)NCCN2CCOCC2)c1 [Reference Compound B, 3-ethynyl-5-((4-((4-(3-(3-isopropyl-1-(p-tolyl)-1H-pyrazol-5-yl)ureido)naphthalen-1-yl)oxy)pyrimidin-2-yl)amino)-N-(2-morpholinoethyl)benzamide]

SMILES: COc1cc(Nc2cc(Oc3ccc(NC(=O)Nc4cc(C(C)(C)C)cc(NS(C)(=O)=O)c4OC)c4ccccc34)ccn2)cc(OC)c1C(=O)NCCOCCOCCOP(=O)(O)O [Example 47, 2-(2-(2-(4-((4-((4-(3-(5-(tert-butyl)-2-methoxy-3-(methylsulfonamido)phenyl)ureido)-naphthalen-1-yl)oxy)pyridin-2-yl)amino)-2,6-dimethoxybenzamido)ethoxy)ethoxy)ethyl dihydrogen phosphate]
KinomeScan Selectivity Score S(10) (non-mutant kinases; 50 nM): 0.042
KinomeScan Selectivity Score S(1) (non-mutant kinases; 500 nM): 0.074

SMILES: COc1cc(Nc2cc(Oc3ccc(NC(=O)Nc4cc(C(C)(C)C)cc(NS(C)(=O)=O)c4OC)c4ccccc34)ccn2)cc(OC)c1C(=O)NCCOCCOCCO [Example 36, 4-((4-((4-(3-(5-(tert-butyl)-2-methoxy-3-(methylsulfonamido)phenyl)ureido)naphthalen-1-yl)oxy)pyridin-2-yl)amino)-N-(2-(2-(2-hydroxyethoxy)ethoxy)ethyl)-2,6-dimethoxybenzamide]
KinomeScan Selectivity Score S(1) (non-mutant kinases; 50 nM): 0.002
KinomeScan Selectivity Score S(10) (non-mutant kinases; 50 nM): 0.050
KinomeScan Selectivity Score S(1) (non-mutant kinases; 500 nM): 0.079

SMILES: COc1cc(Nc2cc(Oc3ccc(NC(=O)Nc4cc(C(C)(C)C)cc(NS(C)(=O)=O)c4OC)c4ccccc34)ccn2)ccc1C(=O)O.Cl [Example 1, hydrochloride salt]
Purity (%) at week n = 1 ([1]; 1 mg/mL solution, Sample 1, 25° C.): 98.0%
Purity (%) at week n = 2 ([1]; 1 mg/mL solution, Sample 2, 5° C., week 2): 98.0%
Purity (%) at week n = 4 ([1]; 1 mg/mL solution, Sample 2, 5° C.): 98.0%
Purity (%) at week n = 1 ([1]; 1 mg/mL solution, Sample 2, 25° C.): 98.0%

SMILES: COc1cc(Nc2cc(Oc3ccc(NC(=O)Nc4cc(C(C)(C)C)cc(NS(C)(=O)=O)c4OC)c4ccccc34)ccn2)ccc1P(C)(=O)O [Example 44, (4-((4-((4-(3-(5-(tert-Butyl)-2-methoxy-3-(methylsulfonamido)phenyl)ureido)naphthalen-1-yl)oxy)pyridin-2-yl)amino)-2-methoxyphenyl)(methyl)phosphinic acid]
mutagenic effects (revertant numbers) [3]: absence of any mutagenic effects
toxicity to the bacteria (mean colony count) [3]: reduction in the mean colony count
toxicity to the bacteria (mean colony count) ([4]; 5000 μg/plate, absence of S-9 mix): reduction in the mean colony count
mutagenic effects (revertant numbers) [4]: absence of any mutagenic effects

SMILES: COc1cc(Nc2cc(Oc3ccc(NC(=O)Nc4cc(C(C)(C)C)cc(NS(C)(=O)=O)c4OC)c4ccccc34)ccn2)ccc1C(=O)O [Example 1, sodium salt]
Purity (%) at week n = 4 ([1]; 1 mg/mL solution, Sample 1, 40° C.): 76.0%
